The structures appear in SMILES notation.

The test system of experiment [1] is second extracellular loop of the 5-HT4 receptor (peptide C15Q). Description: Inhibition ELISA (IE): anti-peptide antibody against 5-HT4 receptor on the coated synthetic peptide C15Q. Format: binding. The note with it: FIG. 3. The method, then:
• Coating • Corresponding peptide is dissolved extemporaneously in appropriate buffer. Peptide at calibrated concentration is coated on a highly absorbing microtitre plate. • Blocking of non-specific binding • Wash • The plate is washed with washing buffer (appendix 1). • Molecules to be screened on the peptide • Each molecule is dissolved and distributed on the plate.
Each molecule which is able to decrease the absorbance at 405 nm at around 20% from its control value is selected for the DMAE.
Five μg/ml of corresponding peptide (C15Q) was coated on a microtitre plate (Falcon, 96 wells). After blocking nonspecific binding sites with blocking buffer, polyclonal anti-C15Q antibodies at decreasing serial dilutions were allowed to react with the peptide.
The same protocol as mentioned above in “Example 1” was performed: […]
(In an ELISA, binding on a coated surface is turned into a signal by an enzyme label.)

Experiment [2] addresses second extracellular loop of the muscarinic M2 receptor (homologue peptide) (Homo sapiens, UniProt P08172). Briefly: Indirect Inhibition ELISA (IIE): antibody against M2 receptor, homologue peptide and ligand in liquid phase. Type of experiment: binding. Conditions: FIG. 5. The protocol:
The selected molecule should beside binding the parent peptide in solid phase also be able to bind it in liquid phase. The latter would mime the in vivo conformation of the parent peptide. • Coating • Corresponding peptide is dissolved extemporaneously in appropriate buffer. Peptide at calibrated concentration is coated on a highly absorbing microtitre plate. • Blocking of on-specific binding • Wash • The plate is washed with washing buffer (appendix 1). • Selected molecules to be tested on IIE • Each molecule dissolved at known concentration is distributed on the plate. Immediately different cascade concentration of the parent peptide is added to the well. This is thereafter followed by the first antibody at AD50 dilution and incubated for an appropriate time and at an optimal temperature. • Wash • The plate is washed with washing buffer (appendix 1). • Secondary antibodies • Peroxidase conjugated goat anti-rabbit antibodies diluted at appropriate dilution (appendix 2) is allowed to react with the bound polyclonal anti-GPCR antibodies for an appropriate time and at an optimal temperature. • Wash
The same protocol as mentioned above in “Example 1 ” was performed: […]

second extracellular loop of the muscarinic M2 receptor (homologue peptide), sequence (P08172 163-182 limits assumed): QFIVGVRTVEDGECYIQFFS

As to `NCCc1c[nH]c2ccc(O)cc12` [5-HT, serotonin], the “inhibition of the interaction of the anti-peptide antibody raised against the 5-HT4 receptor with the corresponding synthetic peptide” value in experiment [1] is on record as “specifically inhibited”.

Consider `CC[N+](CC)(CC)CCOc1cccc(OCC[N+](CC)(CC)CC)c1OCC[N+](CC)(CC)CC` [gallamine], for which the “competition with the homologue peptide for binding the anti-peptide antibodies” value in experiment [2] is “able to compete with the homologue peptide and hinder the recognition between the homologue peptide and the anti-peptide in liquid phase”.
